Assay [1] deals with delayed hypersensitivity reaction (adjuvant arthritis, Mycobacterium butyricum). In words: adjuvant arthritis test in rats. Type of assay: in vivo, rat (male Lister hooded). The text has this: The adjuvant arthritis test in rats produces a measureable extent of a delayed hypersensitivity reaction and can be used for a determination of variations in the extent of the delayed hypersensitivity reaction upon drug administration to the host. An increase in the extent of the delayed hypersensitivity reaction upon drug administration consequently indicates enhanced cell-mediated immunity in the host.
This example illustrates the effect of the compounds of the general formula I in the adjuvant arthritis test in rats.
The adjuvant arthritis test in rats produces a delayed hypersensitivity reaction and can be used for a determination of variations of the delayed hypersensitivity reaction upon drug administration to the host. An increase in the extent of the delayed hypersensitivity reaction upon drug administration consequently indicates enhanced cell-mediated immunity in the host.
A modification of a method described in (12) was used. Male Lister hooded rats weighing 250-275 g were used. At least 9 animals were used in each experimental group.
A single intradermal injection of 0.5 mg/0.1 ml heat killed Mycobacterium butyricum suspended in sterile liquid paraffinum was given into the right hind foot of all rats. After this injection, day 0, the volume of the left hind paw, measured by water displacement, was followed to the end of the experiment.
The substances suspended in aqueous methocel solution 10 ml/kg were given intragastrically. The control group was given methocel solution 10 ml/kg. The different groups of animals were thus treated once daily from day -4 to day 14. The effect of the substances was assessed by the left foot volume expressed in percent after comparison with the control groups.

Assay [2] deals with delayed hypersensitivity reaction (pertussis vaccine pleurisy). In words: pertussis vaccine pleurisy test in rats. Conditions: for change in vivo at 10 mg/kg: Rattus norvegicus, po, 48 h, read-out: Enhancement of the delayed hypersensitivity reaction assessed by the exudate vol. Type of assay: in vivo, rat (male Sprague-Dawley). In outline:
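Male Sprague-Dawley rats (250-275 g, ≥10/group) sensitized day 0 with heat-killed B. pertussis in Freund's incomplete adjuvant into hind and forepaw, challenged intrapleurally day 12. Compounds in aqueous methocel given intragastrically once daily days 10-13. Pleural exudate volume measured day 14, expressed as percent of methocel control.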

The test system of assay [3] is carrageenan-induced edema. As to the kind of experiment: carrageenan edema test in rats. The assay is classed as in vivo, rat (female Sprague-Dawley). Conditions: Rattus norvegicus, po; 80 mg/kg p.o., 30 min before carrageenan; edema weight 3 h after, vs control; preliminary; read-out: Potentiation of the carrageenan edema, %. In short, it runs like this: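 Female Sprague-Dawley rats (110-120 g, ≥10 per group) received compound intragastrically in aqueous methocel 30 min before plantar carrageenan injection into the right hind paw. At 3 h, right minus left paw weight gave edema weight, expressed as percent of methocel controls.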
Background: The carrageenan paw model is a standard test of acute inflammation.

Setting [4] is: Rattus norvegicus, po, 336 h, 40 mg/kg p.o., once daily day -4 to day 14, vs control, preliminary, read-out: Increase of the volume of the left foot.
Where [5] appears, read: 10 mg/kg p.o., once daily day 10 to day 13, vs control, preliminary.

Like-named read-outs stand apart in the source and are kept apart here.

`Cn1c(=O)c(C(=O)Nc2ccccc2)c(O)c2ccccc21` [1:1, N-phenyl-1,2-dihydro-4-hydroxy-1-methyl-2-oxo-quinoline-3-carboxamide]: the change in vivo at 20 mg/kg in assay [1] (Rattus norvegicus, po, 336 h, 20 mg/kg p.o., once daily day -4 to day 14, vs control, preliminary, read-out: Increase of the volume of the left foot) was determined as 50%. The change in vivo at 40 mg/kg in assay [1] (setting [4]) is 41%. In addition, the change in vivo at 10 mg/kg in assay [2] (setting [5]) amounted to 55%. For the same molecule, in assay [3], the change in vivo at 80 mg/kg is 40%.
Consider `COc1ccc2c(c1)c(O)c(C(=O)Nc1ccccc1)c(=O)n2C` [1:2, N-phenyl-1,2-dihydro-4-hydroxy-6-methoxy-1-methyl-2-oxo-quinoline-3-carboxamide], for which the “significant potentiating effect in the adjuvant arthritis test” value in assay [1] (40 mg/kg p.o.) is recorded as “significant potentiating effect”. For the same molecule, in assay [2] (10 mg/kg p.o.), the “significant enhancing effect in the pertussis vaccine pleurisy test” value was “significant enhancing effect”. Further, the change in vivo at 80 mg/kg in assay [3] worked out at 61%.
Taken in the same sequence, the figures for `Cn1c(=O)c(C(=O)Nc2ccc(Cl)cc2)c(O)c2ccccc21` [1:9, N-/4-chlorophenyl/-1,2-dihydro-4-hydroxy-1-methyl-2-oxo-quinoline-3-carboxamide] were “significant potentiating effect”, “significant enhancing effect” and 48%.
As for `CCn1c(=O)c(C(=O)Nc2ccccc2)c(O)c2ccccc21` [1:10, N-phenyl-1,2-dihydro-1-ethyl-4-hydroxy-2-oxo-quinoline-3-carboxamide], the “significant potentiating effect in the adjuvant arthritis test” value in assay [1] (40 mg/kg p.o.) is “significant potentiating effect”. For the same molecule, the change in vivo at 10 mg/kg in assay [2] (setting [5]) was 30%. Moreover, in assay [3], the change in vivo at 80 mg/kg stood at 68%.
For the molecule `CN(C)c1ccc(NC(=O)c2c(O)c3ccccc3n(C)c2=O)cc1` [1:11, N-/4-dimethylaminophenyl/-1,2-dihydro-4-hydroxy-1-methyl-2-oxo-quinoline-3-carboxamide], the change in vivo at 40 mg/kg in assay [1] (setting [4]) came to 45%. For the same molecule, the change in vivo at 10 mg/kg in assay [2] (setting [5]) turned out to be 37%. Besides, the change in vivo at 80 mg/kg in assay [3] is 76%.
Take `Cn1c(=O)c(C(=O)Nc2ccc(CC(=O)O)cc2)c(O)c2ccccc21` [1:12, N-/4-carboxymethylphenyl/-1,2-dihydro-4-hydroxy-1-methyl-2-oxo-quinoline-3-carboxamide]: the “significant potentiating effect in the adjuvant arthritis test” value in assay [1] (40 mg/kg p.o.) is “significant potentiating effect”. Further, the change in vivo at 10 mg/kg in assay [2] (setting [5]) stood at 65%. Also, the change in vivo at 80 mg/kg in assay [3] was 29%.
As for `Cn1c(=O)c(C(=O)Nc2ccccc2)c(O)c2c(F)cccc21` [1:19, N-phenyl-1,2-dihydro-5-fluoro-4-hydroxy-1-methyl-2-oxo-quinoline-3-carboxamide], the “significant potentiating effect in the adjuvant arthritis test” value in assay [1] (40 mg/kg p.o.) is on record as “significant potentiating effect”. Further, the “significant enhancing effect in the pertussis vaccine pleurisy test” value in assay [2] (10 mg/kg p.o.) was “significant enhancing effect”. In addition, the change in vivo at 80 mg/kg in assay [3] came to 67%.
Take `COc1cccc2c(O)c(C(=O)Nc3ccccc3)c(=O)n(C)c12` [1:22, N-phenyl-1,2-dihydro-4-hydroxy-8-methoxy-1-methyl-2-oxo-quinoline-3-carboxamide]: the “significant potentiating effect in the adjuvant arthritis test” value in assay [1] (40 mg/kg p.o.) is recorded as “significant potentiating effect”. In addition, the “significant enhancing effect in the pertussis vaccine pleurisy test” value in assay [2] (10 mg/kg p.o.) is recorded as “significant enhancing effect”. Further, the change in vivo at 80 mg/kg in assay [3] is 58%.
For `CCN(C(=O)c1c(O)c2cccc3c2n(c1=O)CCC3)c1ccccn1` [21:33, N-ethyl-N-2-pyridyl-1,2-dihydro-4-hydroxy-2-oxo-1,8-trimethylene-quinoline-3-carboxamide], the “significant potentiating effect in the adjuvant arthritis test” value in assay [1] (40 mg/kg p.o.) is “significant potentiating effect”. Further, the “significant enhancing effect in the pertussis vaccine pleurisy test” value in assay [2] (10 mg/kg p.o.) is given as “significant enhancing effect”.
As for `CC(C)(S)[C@@H](N)C(=O)O` [Penicillamine, penicillamine, reference compound], the change in vivo at 40 mg/kg in assay [1] (Rattus norvegicus, po, 336 h, read-out: Increase of the volume of the left foot) came out at 0%. Also, the change in vivo at 10 mg/kg in assay [2] was found to be 17%.

The values above are taken from patent US4738971A, “N-aryl-1,2-dihydro-4-substituted-1-alkyl-2-oxo-quinoline-3-carboxamides” (priority 1981, dated 1988).
